# According to patent US4960883A, “Piperazines and homopiperazines” (Kowa Company, Ltd., priority 1988, dated 1990):
# Tested on: Rabbit PRP, ADP-induced platelet aggregation
# Assay: Inhibitory effect on ADP-induced platelet aggregation
# Type: cell-based
# Settings: ADP (2 μm); for Platelet aggregation inhibitory concentration: concentration at which the inhibition rate (%) in parentheses was found
# Experimental: (B) Inhibitory effect on ADP-induced platelet aggregation
# Rabbit PRP (250 μl) was preincubated with drug samples ([…]) of aqueous solution or 1 µl of DMSO solution) at 37° C. for 1 minute, and ADP (2 μm)-induced platelet aggregation was measured by aggregometer (NKK HEMA TRACERl Model PAT-4M). Inhibitory effects of the drugs were estimated from the standard curve of maximal aggregation.
SMILES,Platelet aggregation inhibition rate (%) in the parentheses (at 10^-5 mole/liter) [%],Platelet aggregation inhibitory concentration,Platelet aggregation inhibition rate (%) in the parentheses (at 10^-4 mole/liter) [%]
"COc1ccc(S(=O)(=O)N2CCN(CC(COCC(C)C)N(C)Cc3ccccc3)CC2)cc1OC (stereo not drawn) [Example 1, 1-(3,4-dimethoxybenzenesulfonyl)-4-(3-isobutoxy-2-methylbenzylaminopropyl)-piperazine]",12,10^-5 mole/liter,–
"CC(C)COCC(CN1CCCN(S(=O)(=O)c2ccccc2)CC1)N(C)Cc1ccccc1 (stereo not drawn) [Example 2, 1-benzenesulfonyl-4-(3-isobutoxy-2-methylbenzylaminopropyl)homopiperazine]",–,10^-4 mole/liter,60
CC(C)COCC(CN1CCN(C(=O)CCO[N+](=O)[O-])CC1)N(C)Cc1ccccc1 (stereo not drawn) [Example 7],–,10^-4 mole/liter,33
CC(C)COCC(CN1CCN(S(=O)(=O)c2cccc3c(Cl)cccc23)CC1)N(C)Cc1ccccc1 (stereo not drawn) [Example 9],8,10^-5 mole/liter,–
CC(C)COCC(CN1CCN(S(C)(=O)=O)CC1)N(C)Cc1ccccc1 (stereo not drawn) [Example 10],–,10^-4 mole/liter,35
CC(C)COCC(CN1CCN(S(=O)(=O)c2ccccc2)CC1)N(C)Cc1ccccc1 (stereo not drawn) [Example 11],–,10^-4 mole/liter,33
